Laboratory results: US9102622B2 (University of Connecticut, priority 2006, dated 2015)
Where two headings read alike, the source gives them in different places.

Biological target: fatty acid amide hydrolase (FAAH) (Rattus norvegicus (Rat), UniProt P97612)
Test: FAAH enzyme assay: inhibition of anandamide (AEA) hydrolysis, arachidonic acid quantified by HPLC
Type: biochemical
Conditions: for IC50 / Ki: eight-point assay; for IC50: anandamide hydrolysis by FAAH, read-out: IC50; for Ki: calculated with Prizm software, read-out: Ki; for inhibition at 100 µM / inhibition at 0.1 µM: read-out: % Inhibition (Concentration); for inhibition at 0.1 µM: inhibitor 100 nM
Procedure: The resulting supernatant is injected onto the HPLC.

[1] = one-point assay, inhibitor 100 μM, partially purified rat brain FAAH, 15 min
[2] = one-point assay, partially purified rat brain FAAH, 15 min

Chain of fatty acid amide hydrolase (FAAH) (P97612 whole entry): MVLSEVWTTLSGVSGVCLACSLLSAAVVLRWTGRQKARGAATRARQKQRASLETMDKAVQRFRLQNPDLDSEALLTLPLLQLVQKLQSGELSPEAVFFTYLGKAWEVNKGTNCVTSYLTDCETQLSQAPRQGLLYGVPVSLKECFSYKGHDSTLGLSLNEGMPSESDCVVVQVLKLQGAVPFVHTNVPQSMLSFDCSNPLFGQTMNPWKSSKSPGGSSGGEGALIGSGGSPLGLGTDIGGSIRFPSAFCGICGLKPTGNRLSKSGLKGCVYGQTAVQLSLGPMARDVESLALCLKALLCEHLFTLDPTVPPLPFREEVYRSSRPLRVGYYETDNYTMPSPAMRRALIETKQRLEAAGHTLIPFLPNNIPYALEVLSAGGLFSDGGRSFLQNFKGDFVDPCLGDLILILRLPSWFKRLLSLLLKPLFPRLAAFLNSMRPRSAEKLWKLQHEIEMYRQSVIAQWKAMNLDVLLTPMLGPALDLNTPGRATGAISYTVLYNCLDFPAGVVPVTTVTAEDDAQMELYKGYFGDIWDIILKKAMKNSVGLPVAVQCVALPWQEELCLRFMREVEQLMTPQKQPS

Row | SMILES | IC50 | Ki | inhibition at 100 µM [1] | inhibition at 100 µM | inhibition at 0.1 µM [2]
1 | Cc1nnc(C(=O)CCCCCCOc2ccc(OCc3ccccc3)cc2)o1 [Compound 65.2, 7-(4-Benzyloxy-phenoxy)-1-(5-methyl-1,3,4-oxadiazol-2-yl)-heptan-1-one] | 120 nM | 8 nM | 96% | – | –
2 | O=S(=O)(Cl)CCCCCCCc1cccc(OCc2ccccc2)c1 [Compound 12.2, 7-(3-Benzyloxy-phenyl)-heptanesulfonyl chloride] | 12000 nM | 2900 nM | 97% | – | –
3 | O=C(CCCCc1ccccc1)C(F)(F)F [Compound 27.2, 1,1,1-Trifluoro-6-phenyl-2-hexanone] | 18800 nM | 2100 nM | 53% | – | –
4 | O=C(CCCOc1ccccc1O)C(F)(F)F [Compound 24.8, 1,1,1-Trifluoro-5-[2-(hydroxy)phenoxy]-2-pentanone] | 138000 nM | 15300 nM | 43% | – | –
5 | O=C(c1ccc(-c2ccccc2)cc1)C(F)(F)c1ccccn1 [Compound 96.2, 1 (Biphenyl-4-yl)-2,2-difluoro-2-(pyridin-2-yl)ethanone] | – | – | 61% | – | –
6 | CCCCCCC(C)(C)c1cc(OCOC)c(-c2ccc(NC(=O)OCC)cc2)c(OCOC)c1 [Compound 52.2, 2′,6′-Bis(methoxymethoxy)-4′-(1,1-dimethylheptyl)[1,1′-biphenyl]-4-yl carbamic acid ethyl ester] | – | – | 64% | – | –
7 | O=C(CCCCCOc1cccc(O)c1)C(F)(F)F [Compound 24.7, 1,1,1-Trifluoro-7-[3-(hydroxy)phenoxy]-2-heptanone] | 5020 nM | 440 nM | – | – | –
8 | Cc1nnc(C(=O)C(F)(F)CCCCCCOc2ccccc2)o1 [Compound 89.7, 2,2-Difluoro-8-phenoxy-1-(5-methyl-1,3,4-oxadiazol-2-yl)-octan-1-one] | 31 nM | 9 nM | – | – | –
9 | CCCCCCC(C)(C)c1cc(OCOCC)c(-c2ccc(NC(=O)OCc3ccccc3)cc2)c(OCOCC)c1 [Compound 52.3, 2′,6′-Bis(ethoxymethoxy)-4′-(1,1-dimethylheptyl)[1,1′-biphenyl]-4-yl carbamic acid benzyl ester] | – | – | 41% | – | –
10 | COc1ccc(CCCCC(=O)C(F)(F)F)cc1 [Compound 27.4, 1,1,1-Trifluoro-6-(4-methoxy-phenyl)-2-hexanone] | 6900 nM | 600 nM | 82% | – | –
11 | O=C(CCCCOc1cccc(OCc2ccccc2)c1)C(F)(F)F [Compound 23.6, 1,1,1-Trifluoro-6-[3-(Benzyloxy)phenoxy]-2-hexanone] | 6600 nM | 470 nM | 97% | – | –
12 | CCOC(=O)C(=O)CCCCCOc1ccccc1 [Compound 87.4, 2-Oxo-7-phenoxy-heptanoic acid ethyl ester] | 290 nM | 90 nM | 100% | – | –
13 | Oc1cccc(OCCCC(O)(O)C(F)(F)F)c1 [Compound 24.5, 1,1,1-Trifluoro-2,2-dihydroxy-5-[3-(hydroxy)phenoxy]pentane] | 22800 nM | 2500 nM | 79% | – | –
14 | CCCCCCC(C)(C)c1cc(O)c(-c2ccc(NC(=O)OC3CCCCC3)cc2)c(O)c1 [Compound 53.1, 2′,6′-Dihydroxy-4′-(2-methyloctan-2-yl)biphenyl-4-yl carbamic acid cyclohexyl ester] | – | – | 23% | – | –
15 | O=C(Cc1cccc(-c2cccc(OCc3ccccc3)c2)c1)C(F)(F)F [Compound 35, 1,1,1-Trifluoro-3-(3-benzyloxy-biphenyl-3-yl)-2-propanone] | – | – | 54% | – | –
16 | O=C(CCCCCCOc1ccc(OCc2ccccc2)cc1)c1nnc(COCc2ccccc2)o1 [Compound 73.2, 7-(4-Benzyloxy-phenoxy)-1-(5-benzyloxymethyl-1,3,4-oxadiazol-2-yl)-heptan-1-one] | 21 nM | 2 nM | – | 93% | –
17 | CC(=O)C(F)(F)CCCCOc1cccc(OCc2ccccc2)c1 [Compound 89.1] | 270 nM | 80 nM | – | – | 79%

Row | SMILES | IC50 | Ki | inhibition at 100 µM [1] | inhibition at 100 µM | inhibition at 0.1 µM [2]
18 | O=C(c1ccccn1)C(F)(F)CCCCOc1ccccc1 [Compound 89.9, 2,2-Difluoro-6-phenoxy-1-(pyridin-2-yl)-hexan-1-one] | 77 nM | 24 nM | – | – | 52%
19 | O=C1c2ccccc2S(=O)(=O)N1CCCCOc1ccc(O)cc1 [Compound 84, N-[4-(4-Hydroxy-phenoxy)-butyl]saccharin] | 9100 nM | 900 nM | 92% | – | –
20 | O=C(Nc1ccc(Br)cc1)OC1CCCCC1 [Compound 48.1, (4-Bromophenyl)carbamic acid cyclohexyl ester] | – | – | 25% | – | –
21 | CC(=O)C(F)(F)CCCCOc1ccccc1 [Compound 89.2] | – | – | 98% | – | –
22 | CCOC(=O)Nc1ccc(Br)cc1 [Compound 48.2] | 4000 nM | 1200 nM | 84% | – | –
23 | CCOC(=O)C(=O)c1ccc(Br)cc1 [Compound 91.5, Ethyl 2-(4-bromophenyl)-2-oxoacetate] | – | – | 79% | – | –
24 | O=C(CCCCOc1ccccc1OCc1ccccc1)C(F)(F)F [Compound 23.9, 1,1,1-Trifluoro-6-[2-(Benzyloxy)phenoxy]-2-hexanone] | 660 nM | 46 nM | 97% | – | –
25 | COc1cccc(C(=O)c2nnc(C)o2)c1 [Compound 81, 1-(3-Methoxy-phenyl)-1-(5-methyl-1,3,4-oxadiazol-2-yl)-ketone] | – | – | 24% | – | –
26 | O=S(=O)(F)CCCCCCCc1cccc(O)c1 [Compound 14.2, 7-(3-Hydroxy-phenyl)-heptanesulfonyl fluoride] | 113 nM | 26 nM | 99% | – | –
27 | O=C(CCCCCc1ccccc1)C(F)(F)F [Compound 27.3, 1,1,1-Trifluoro-7-phenyl-2-heptanone, reference compound] | 11100 nM | 1230 nM | 83% | – | –
28 | O=S(=O)(Cl)CCCCCCCc1ccccc1OCc1ccccc1 [Compound 12.3, 7-(2-Benzyloxy-phenyl)-heptanesulfonyl chloride] | 1750 nM | 410 nM | 97% | – | –
29 | Cc1nnc(C(=O)CCCCCCOc2ccc(O)cc2)o1 [Compound 66, 7-(4-Hydroxy-phenoxy)-1-(5-methyl-1,3,4-oxadiazol-2-yl)-heptan-1-one] | 100 nM | 6 nM | – | 97% | –
30 | CCCCCCC(C)(C)c1cc(O)c(-c2ccc(NC(=O)OCc3ccccc3)cc2)c(O)c1 [Compound 53.3, 2′,6′-Dihydroxy-4′-(2-methyloctane-2-yl)biphenyl-4-yl carbamic acid benzyl ester] | – | – | 89% | – | –
31 | O=C(Nc1ccc(Br)cc1)OC12CC3CC(CC(C3)C1)C2 [Compound 48.4] | – | – | 56% | – | –
32 | O=S(=O)(F)CCCCCCCc1ccccc1 [Compound 4.2, 7-Phenyl-heptanesulfonyl fluoride, reference compound] | – | – | 31% | – | –
33 | O=S(=O)(F)CCCc1ccccc1 [Compound 4.1, 3-Phenyl-propanesulfonyl fluoride, reference compound] | – | – | 19% | – | –
34 | CCCCCCc1ccc(O)c(-c2ccc(C(=O)C(F)(F)F)cc2)c1OC [Compound 40.3, 2,2,2-Trifluoro-1-(3′-hexyl-6′-hydroxy-2′-methoxybiphenyl-4-yl)ethanone] | – | – | 81% | – | –
